In patent US20100113599A1, “AMPHIPATHIC CARBOXYLATES FOR THE TREATMENT OF IMMUNE-RELATED DISORDERS” (Syndromex Ltd. c/o Yissum Research Development Company, of, priority 2007, published 2010):

Experiments:
gp130 = gp130 protein levels in HepG2 cells (Western blot); format: cell-based, human; settings: 200 μM for 17 and 24 h, LIF 20 ng/ml
Procedure: (§1) MEDICA drugs inhibit LIF-induced STAT3 phosphorylation. HepG2 cells were incubated with M16αα (200 μM) for 17 and 24 h. At each time point LIF (20 ng/ml) was added for the last 20 minutes (for protein) or for the last 3 h (for mRNA). Western blots of cell lysates were reacted with anti gp130 and anti P-STAT3 (Y705) antibodies and normalized by β-actin.
(§2) MEDICA drugs inhibit IL-6-induced STAT3 phosphorylation. HepG2 cells were incubated for 40 h with […] M16αα. IL-6 (20 ng/ml) was added for the last 15 h. Western blots of cell lysates were reacted, with anti GP-130, anti STAT3, anti P-STAT3 (Y705) and anti P-STAT3 (S727) antibodies and normalized by β-actin. Abbreviations: cont. (control), dim. (dimer), Tot. (total), mono. (monomer).
The examined effect of MEDICA drugs on expression of APP, was further analyzed by analyzing the effect of M16αα on downstream elements in the signaling pathway leading to expression of APP. Signal Transducers and Activators of Transcription 3 (STAT3), is a transcription factor phosphorylated by JAK kinases in response to cytokine activation of a cell surface receptor tyrosine kinases. Cytokines that activate STAT3 include growth hormone, IL-6 family cytokines, Oncostatin, LIF, CNTF and G-CSF, Leptin and others. […]

STAT3 = assay: LIF- or IL-6-induced STAT3 phosphorylation in HepG2 cells (Western blot); format: cell-based, human
Procedure: as §1, §2
The examined effect of MEDICA drugs on expression of APP, was further analyzed by analyzing the effect of M16αα on downstream elements in the signaling pathway leading to expression of APP. Signal Transducers and Activators of Transcription 3 (STAT3), is a transcription factor phosphorylated by JAK kinases in response to cytokine activation of a cell surface receptor tyrosine kinases. Cytokines that activate STAT3 include growth hormone, IL-6 family cytokines, Oncostatin, LIF, CNTF and G-CSF, Leptin and others. As illustrated by FIG. 1, upon cytokine activation, the STAT3 proteins dimerize and are localized to the nucleus where they activate transcription of APP as well as of other cytokine-responsive genes coding for cell survival, growth and proliferation. Therefore, the inventors next examined whether the effect of MEDICA drugs on the expression of APP is a result of interfering with STAT3 transcription activity or whether MEDICA drugs are involved in a more upstream element of the transduction pathway such as the gp130 receptor. Since dimerization and activation of STAT3 is dependent on its phosphorylation in both, tyrosine 705 (pY^705) and serine 727 (pS^727) residues, the inventors next examined the effect of M16αα on the phosphorylation of STAT3. Thus, HepG2 cells were incubated with M16αα (200 μM) for 17 and 24 h. […]

U266 cells [1] = assay: Growth of Multiple Myeloma U266 cells, Trypan Blue exclusion; format: cell-based; settings: 200 μM, day 6
Procedure: Growth Suppression by M16αα of Multiple Myeloma (MM) cells. MM cells were incubated in RPMI 1640 medium in the presence of added M16αα as indicated. Cell number was determined daily by Trypan Blue exclusion.
The inhibitory effect of MEDICA drugs on colon tumor cell proliferation, presumably via activation of apoptosis, encouraged the inventors to further investigate the potential beneficial effect of these compounds on other malignancies. The inventors therefore next examined the effect of the MEDICA drugs using the Multiple myeloma model. U-266 and RPMI-8226 cell lines served as cell models for MM. MM cells were incubated in RPMI 1640 medium in the presence of M16αα as indicated. Cell number was determined daily by Trypan Blue exclusion assay. […] It should be noted that generally, these cells were more sensitive even to lower concentrations of M16αα.

HT29 colon cancer cells = assay: HT29 cell number, trypan blue exclusion assay; format: cell-based; settings: 200 μM, days 1, 2, 3 and 6
Procedure: Abbreviations: D. (days) cont, (control), RCN (relative cell number).
Cells were cultured in Dulbecco's Modified Eagle Medium (DMEM) supplemented with 10% fetal calf serum, glutamine and antibiotics (100,000 units/L penicillin and 100 mg/L streptomycin sulfate).
The involvement of MEDICA drugs in signal transduction pathways related to immuno-modulatory mechanisms have led the inventors to further investigate the effect of the MEDICA drugs in different disorders associated with abnormal immune reaction. Since cancerous processes may be promoted as a result of interruption of the Th1/Th2 balance, the possible beneficial effect of the MEDICA drugs on tumor proliferation and progression have been next examined. The effect of different concentrations M16αα on cell proliferation was first examined in vitro using the HT29 colon cancer cells as a model for colon cancer. Cells were cultured in the presence of different concentrations of M16αα (50, 100, and 200 μM). Samples obtained from days 1, 2, 3 and 6 were analyzed for cell number using the trypan blue exclusion assay. Proliferation was measured by BrdU incorporation assay.

fibrinogen α mRNA = assay: Fibrinogen mRNA expression in IL-6-stimulated HepG2 cells (real time RT-PCR); format: cell-based, human; settings: 200 mM M16αα 40 h, control as well as IL-6 (20 ng/ml, last 15 h) induced cells, normalized by GAPDH
Procedure: HepG2 cells were incubated for 40 h with […] M16αα. IL-6 (20 ng/ml) was added for the last 15 h. Total RNA was prepared and was analyzed by real time RT-PCR for fibrinogen a mRNA. Transcript levels were normalized by GAPDH.
The hypolipidemic effect of both M16ααα and/or M16ββ (MEDICA drugs) and its application in the treatment of Metabolic Syndrome, led the inventors to try and examine the effect of these drugs on another crucial risk factor in Metabolic Syndrome CVD patients, namely, the inflammatory indications. These indications are identified by markers like C-reactive protein (CRP), Serum amyloid A (SAA), fibrinogen and ICAM that promote atherosclerotic CVD. To evaluate the possible anti-inflammatory effect of MEDICA drugs, the inventors first examined the effect of M16αα, on the expression of different acute phase proteins (APP). Human liver cells (HepG2 cells) were stimulated with IL-6 and incubated with the MEDICA drug, M16αα. Total RNA was analyzed by real time PCR for expression of mRNA of different acute phase proteins (APP).

U266 cells [2] = assay: Cell cycle arrest markers in MM U266 cells (Western blot); format: cell-based; settings: 200 μM, 24 h
Procedure: U266 cells were cultured with 200 μM M16αα in RPMI 1640 medium with 10% FCS for 24 h, lysed, Western blotted and reacted with anti Cyclin D1, p-P53 (S15) and p-Rb as indicated.

[3] = 200 mM M16αα 40 h, IL-6 20 ng/ml last 15 h

For `CC(C)(CCCCCCCCCCCCC(C)(C)C(=O)O)C(=O)O` [M16αα, 2,2,15,15-tetramethyl-hexadecanedioic acid], the gp130 protein levels (gp130) was “significantly reduced”, the “LIF-induced phosphorylation of tyrosine 705 residue of STAT3” value (STAT3; 200 μM for 17 and 24 h, LIF 20 ng/ml) was “clearly inhibits” and the “expression of STAT3 (total STAT3)” value (STAT3; [3]) was “not affected”. The “phosphorylation of STAT3 serine 727 residue” value (STAT3; [3]) was “significantly inhibited”, the cell proliferation (U266 cells [1]) was “complete inhibition” and the “cell number (relative cell number)” value (HT29 colon cancer cells) was “significant reduction”. The “fibrinogen mRNA levels” value (fibrinogen α mRNA) was “clearly reduced”, the “Cyclin D1 expression” value (U266 cells [2]) was “reduction” and the “phosphorylated Rb” value (U266 cells [2]) was “reduction”. The “phosphorylated p53” value (U266 cells [2]) was “increase”.
